From ChEMBL document CHEMBL1781969, “4β-[(4-Alkyl)-1,2,3-triazol-1-yl] podophyllotoxins as anticancer compounds: design, synthesis and biological evaluation” (Eur J Med Chem, 2011) come the findings set out here.

Assay [1] has as its system HCT-15. The assay is described as follows: cells. The following applies: Homo sapiens, HCT-15, 48 h.
Description: Cytotoxicity against human HCT15 cells after 48 hrs by sulforhodamine B assay
For assay [2], the system named is MCF7. The assay is described as follows: cells. The following applies: Homo sapiens, MCF7, 48 h.
Description: Cytotoxicity against human MCF7 cells after 48 hrs by sulforhodamine B assay
Assay [3] has as its system SF-295. The assay is described as follows: Cytotoxicity against human SF295 cells after 48 hrs by sulforhodamine B assay. Type of assay: functional, cell-based. Conditions: SF-295, 48 h.
The subject of assay [4] is MCF7. The assay is described as follows: Induction of apoptosis in human MCF7 cells assessed as DNA ladder formation at 1 uM after 24 hrs using ethidium bromide staining by agarose gel electrophoresis. It is filed as functional, cell-based.
Assay [5] deals with MCF7. Briefly: Cell cycle arrest in human MCF7 cells assessed as accumulation at sub-G1 phase at 5 uM after 24 hrs using propidium iodide staining by flow cytometry (reference value: 7.69%). It is filed as functional.
Assay [6] relates to MCF7. Briefly: Cell cycle arrest in human MCF7 cells assessed as accumulation at G1/G0-phase at 1 uM after 24 hrs using propidium iodide staining by flow cytometry (reference value: 47.42%). Type of assay: functional.
In assay [7] the test system is MCF7. The assay is described as follows: Cell cycle arrest in human MCF7 cells assessed as accumulation at G2/M-phase at 5 uM after 24 hrs using propidium iodide staining by flow cytometry (reference value: 19.91%). Type of assay: functional.
For assay [8], the system named is HEp-2. The assay is described as follows: Cytotoxicity against human Hep2 cells after 48 hrs by sulforhodamine B assay. Conditions: HEp-2, 48 h. Type of assay: functional, cell-based.
The subject of assay [9] is MCF7. The assay is described as follows: Cell cycle arrest in human MCF7 cells assessed as accumulation at G1/G0-phase at 5 uM after 24 hrs using propidium iodide staining by flow cytometry (reference value: 47.42%). It is filed as functional.
In assay [10] the test system is MCF7. The assay is described as follows: Cell cycle arrest in human MCF7 cells assessed as accumulation in S-phase at 5 uM after 24 hrs using propidium iodide staining by flow cytometry (reference value: 25.29%). Type of assay: functional.
The test system of assay [11] is MCF7. Briefly: Cell cycle arrest in human MCF7 cells assessed as accumulation in S-phase at 1 uM after 24 hrs using propidium iodide staining by flow cytometry (reference value: 25.29%). It is filed as functional.
In assay [12] the test system is MCF7. Briefly: Cell cycle arrest in human MCF7 cells assessed as accumulation at sub-G1 phase at 1 uM after 24 hrs using propidium iodide staining by flow cytometry (reference value: 7.69%). It is filed as functional.
For assay [13], the system named is PC-3. The assay is described as follows: cells. The following applies: Homo sapiens, PC-3, 48 h.
Description: Cytotoxicity against human PC3 cells after 48 hrs by sulforhodamine B assay
The test system of assay [14] is MCF7. The assay is described as follows: Cell cycle arrest in human MCF7 cells assessed as accumulation at G2/M-phase at 1 uM after 24 hrs using propidium iodide staining by flow cytometry (reference value: 19.91%). It is filed as functional.
Assay [15] relates to A549. The assay is described as follows: cells. Conditions: Homo sapiens, A549, 48 h.
Description: Cytotoxicity against human A549 cells after 48 hrs by sulforhodamine B assay

The source made the active and inactive calls. No cut-off for these calls is given here.

Take `COc1cc([C@@H]2c3cc4c(cc3[C@@H](O[C@@H]3O[C@@H]5CO[C@@H](C)O[C@H]5[C@H](O)[C@H]3O)[C@H]3COC(=O)[C@H]23)OCO4)cc(OC)c1O` [ETOPOSIDE]: the IC50 in [1] came out at 7.15 µM; in assay [2] it was 19 µM; in assay [3], 13.5 µM.
On to `CCc1cn([C@@H]2c3cc4c(cc3[C@@H](c3cc(OC)c(OC)c(OC)c3)[C@H]3C(=O)OC[C@@H]32)OCO4)nn1`, for which the result in [4] was Active. Also, the Activity in [5] turned out to be 80.1%; in [6], 22.27%; in assay [7], 1.74%; in assay [9], 16.28%; in assay [10] it was 2.84%; in assay [11], 5.99%. The Activity in [12] was 69.34%; in assay [14] it was 1.96%. Besides, the concentration for half-maximal inhibition (IC50) amounted to 0.06 µM in [8]; 0.4 µM in assay [1]; 0.4 µM in assay [2]; 0.03 µM in assay [13]; 35 µM in assay [15]; 1.8 µM in [3].
Consider `CCCCCCCCCCc1cn([C@@H]2c3cc4c(cc3[C@@H](c3cc(OC)c(O)c(OC)c3)[C@H]3C(=O)OC[C@@H]32)OCO4)nn1`, for which the IC50 in assay [8] worked out at 19 µM; in assay [1], 15 µM; in assay [2], 11 µM; in [13] it was 19 µM; in assay [15], 30 µM; in assay [3], 13 µM.
Turning to `CCCCCCc1cn([C@@H]2c3cc4c(cc3[C@@H](c3cc(OC)c(O)c(OC)c3)[C@H]3C(=O)OC[C@@H]32)OCO4)nn1`, the 50% inhibitory concentration (IC50) in assay [8] is greater than 100 µM; in [1], 11 µM; in assay [2] it was 19 µM; in [13], 8.7 µM; in [15], 26 µM; in assay [3] it was 18 µM.
With `CCCc1cn([C@@H]2c3cc4c(cc3[C@@H](c3cc(OC)c(O)c(OC)c3)[C@H]3C(=O)OC[C@@H]32)OCO4)nn1`, the concentration for half-maximal inhibition (IC50) is 2.9 µM in assay [8]; 0.8 µM in assay [1]; 5.7 µM in [2]; 0.2 µM in [13]; 27 µM in [15]; 2.3 µM in assay [3].
`CCCCCCCCc1cn([C@@H]2c3cc4c(cc3[C@@H](c3cc(OC)c(O)c(OC)c3)[C@H]3C(=O)OC[C@@H]32)OCO4)nn1`: the IC50 is 3.8 µM in assay [8]; 13 µM in [1]; 11 µM in [2]; 5.1 µM in assay [13]; greater than 100 µM in assay [15]; 5.7 µM in assay [3].
In the case of `CCCc1cn([C@@H]2c3cc4c(cc3[C@@H](c3cc(OC)c(OC)c(OC)c3)[C@H]3C(=O)OC[C@@H]32)OCO4)nn1`, the result in [4] was Active. In addition, the Activity in assay [5] stood at 78.16%; in [6], 27.81%; in assay [7] it was 1.07%; in assay [9], 10.56%; in [10] it was 11.44%; in assay [11] it was 16.17%. Further, the Activity in assay [12] was determined as 55.65%; in assay [14] it was 3.39%. Besides, the half-inhibitory concentration (IC50) in [8] was 1.6 µM; in [1], 0.03 µM; in assay [2] it was 1.4 µM; in assay [13], 5.1 µM; in [15] it was 39 µM; in [3], 3.6 µM.
As to `CCCCc1cn([C@@H]2c3cc4c(cc3[C@@H](c3cc(OC)c(O)c(OC)c3)[C@H]3C(=O)OC[C@@H]32)OCO4)nn1`, the half-inhibitory concentration (IC50) in assay [8] is 17 µM; in assay [1], 34 µM; in assay [2] it was 20 µM; in assay [13], 12 µM; in [15], 35 µM; in assay [3], 21 µM.
On to `CCCCCCCc1cn([C@@H]2c3cc4c(cc3[C@@H](c3cc(OC)c(O)c(OC)c3)[C@H]3C(=O)OC[C@@H]32)OCO4)nn1`, for which the 50% inhibitory concentration (IC50) in assay [8] stood at 6 µM; in assay [1], 15 µM; in [2], 13 µM; in assay [13], 5.8 µM; in assay [15], 45 µM; in [3] it was 10 µM.
Regarding `COc1cc([C@@H]2c3cc4c(cc3[C@@H](n3cc(CO)nn3)[C@H]3COC(=O)[C@H]23)OCO4)cc(OC)c1O`, the half-maximal inhibitory concentration (IC50) came to 6.7 µM in assay [8]; 18 µM in [1]; 0.6 µM in [2]; 8.2 µM in assay [13]; 18 µM in assay [15]; 15 µM in assay [3].
Turning to `CCCCCCc1cn([C@@H]2c3cc4c(cc3[C@@H](c3cc(OC)c(OC)c(OC)c3)[C@H]3C(=O)OC[C@@H]32)OCO4)nn1`, the IC50 in assay [8] amounted to 10 µM; in assay [1], 27 µM; in assay [2], 8.6 µM; in assay [13], 6.4 µM; in assay [15] it was 35 µM; in assay [3], 10 µM.
Turning to `CCCCCCCc1cn([C@@H]2c3cc4c(cc3[C@@H](c3cc(OC)c(OC)c(OC)c3)[C@H]3C(=O)OC[C@@H]32)OCO4)nn1`, the IC50 in [8] was 9.8 µM; in [1], 45 µM; in assay [2], 6.4 µM; in assay [13], 23 µM; in assay [15], 36 µM; in assay [3], 25 µM.
Take `CCCCc1cn([C@@H]2c3cc4c(cc3[C@@H](c3cc(OC)c(OC)c(OC)c3)[C@H]3C(=O)OC[C@@H]32)OCO4)nn1`: the IC50 was determined as 9.6 µM in [8]; 11 µM in assay [1]; 9.8 µM in assay [2]; 6.6 µM in assay [13]; 82 µM in assay [15]; 8.1 µM in assay [3].
In the case of `COc1cc([C@@H]2c3cc4c(cc3[C@@H](n3cc(CO)nn3)[C@H]3COC(=O)[C@H]23)OCO4)cc(OC)c1OC`, the IC50 was 0.06 µM in assay [8]; 15 µM in assay [1]; 0.01 µM in assay [2]; 0.06 µM in assay [13]; greater than 100 µM in assay [15]; 2.1 µM in [3].
With `CCCCCCCCCCc1cn([C@@H]2c3cc4c(cc3[C@@H](c3cc(OC)c(OC)c(OC)c3)[C@H]3C(=O)OC[C@@H]32)OCO4)nn1`, the half-inhibitory concentration (IC50) in assay [8] is 5.8 µM; in assay [1] it was 29 µM; in assay [2], 5.7 µM; in assay [13], 5.5 µM; in assay [15], greater than 100 µM; in [3], 6.2 µM.
Consider `CCCCCc1cn([C@@H]2c3cc4c(cc3[C@@H](c3cc(OC)c(O)c(OC)c3)[C@H]3C(=O)OC[C@@H]32)OCO4)nn1`, for which the half-inhibitory concentration (IC50) was 21 µM in assay [8]; 2.1 µM in [1]; 14 µM in assay [2]; 4.7 µM in assay [13]; 26 µM in assay [15]; 4.3 µM in [3].
`CCCCCc1cn([C@@H]2c3cc4c(cc3[C@@H](c3cc(OC)c(OC)c(OC)c3)[C@H]3C(=O)OC[C@@H]32)OCO4)nn1`: the IC50 turned out to be 7.7 µM in assay [8]; 11 µM in assay [1]; 9.5 µM in assay [2]; 8.4 µM in assay [13]; 39 µM in [15]; 24 µM in assay [3].
For `CCCCCCCCc1cn([C@@H]2c3cc4c(cc3[C@@H](c3cc(OC)c(OC)c(OC)c3)[C@H]3C(=O)OC[C@@H]32)OCO4)nn1`, the IC50 is 18 µM in assay [8]; greater than 100 µM in [1]; 9.3 µM in assay [2]; 17 µM in [13]; greater than 100 µM in assay [15]; 14 µM in assay [3].
For the molecule `CCc1cn([C@@H]2c3cc4c(cc3[C@@H](c3cc(OC)c(O)c(OC)c3)[C@H]3C(=O)OC[C@@H]32)OCO4)nn1`, the half-maximal inhibitory concentration (IC50) amounted to 0.05 µM in [8]; 1.9 µM in assay [1]; 0.04 µM in assay [2]; 0.06 µM in assay [13]; 17 µM in assay [15]; 4.8 µM in [3].
